Results on 1 compound are retold here after patent US20240197871A1, “COMBINATION OF A CAR T CELL THERAPY AND AN IMMUNOMODULATORY COMPOUND FOR TREATMENT OF LYMPHOMA” (Juno Therapeutics, Inc., priority 2021, published 2024).

The test system of one assay is anti-CD19 CAR T cells. The assay can be described thus: Cell cycle phase (EdU incorporation) of stimulated anti-CD19 CAR T cells. It counts as cell-based, human. The conditions noted are these: for percentage of cells in G1 phase: P<0.001. Here is the method: Anti-CD19 CAR-expressing T cell compositions were generated from three different healthy donors as described in Example 1. Prior to use, cryopreserved CD4+ and CD8+ engineered cell compositions were thawed and combined at approximately a 1:1 CD4:CD8 ratio.
Following incubation, stimulated CAR T cells were harvested, washed twice in media, and assessed.
The cell cycle phases of CAR T cells treated with the compounds during CAR-specific stimulation with the plate-bound anti-idiotypic antibody were determined using EDU incorporation for two hours after three days of stimulation. For EDU incorporation, CAR T cells were labeled using the Click-iT™ EdU Cell Proliferation Kit (Thermo Fisher Scientific), after which the prepared cells were analyzed by flow cytometry. […] Without wishing to be bound by theory, the accumulation of CAR T cells in G1 phase may account for one of the mechanisms by which the compounds can limit onset of exhaustion during chronic stimulation, as shown in Example 3 below.

In the next assay the target is T1, Ikaros (Homo sapiens, UniProt Q13422+Q96SW2).
T1 construct: analyzed by flow cytometry to assess intracellular levels of Ikaros and Aiolos in CAR+ T cells; endogenous in cells; host or cells: primary human CD4+ and CD8+ T cells from healthy donors, lentivirally transduced with an anti-CD19 CAR
The assay can be described thus: Ikaros levels in anti-CD19 CAR T cells after 24-hour or six-day exposure. It counts as cell-based. On the procedure:
Due to the robust impact of Compound C on degradation of Ikaros and Aiolos, in which excessive or sustained treatment may impact CAR T cell function negatively and/or cause neutropenia secondary to neutrophil maturation arrest, an intermittent dosing schedule for treatment with Compound C was evaluated for its ability to effect deep, but transient degradation of Ikaros. To do so, the pharmacokinetics of a weekly (Q7D) 0.3-mg dose of Compound C were modelled. […] The effects of a weekly 0.3-mg dose of Compound C on neutrophil development were also modelled.
FIGS. 6B and 6C show Ikaros levels in anti-CD19 CAR T cells, generated as described in Example 1, following 24-hour (FIG. 6B) or six-day exposure (FIG. 6C) to Compound C.

Assay [1] has as its system chronically stimulated anti-CD19 CAR T cells. The assay can be described thus: RNA-seq gene expression of chronically stimulated CAR T cells. It counts as cell-based, human. Here is the method: Five days after re-challenge, CAR T cells were sorted from tumor spheroids, and gene expression was analyzed by RNA sequencing (RNA-seq). Libraries for RNA-seq were sequenced, and reads were mapped to the Genome Reference Consortium Human Build 38 (GRCh38) human reference genome. Gene expression levels were quantified, and differential expression was performed using DESeq2. Gene expression was compared between chronically stimulated CAR T cells treated with Compound C during stimulation and untreated chronically stimulated CAR T cells, as well as between untreated chronically stimulated CAR T cells and non-stimulated CAR T cells. Differential expression was calculated based on treatment effects with 1 nM and 10 nM of the compounds. Differential locus selection cut offs were q≤0.05 and absolute log2 fold change ≥0.5.
Pathway analysis of CAR T RNA-seq data using the Kyoto Encyclopedia of Genes and Genomes (KEGG) was also performed using clusterProfiler. Pathways whose upregulation by chronic stimulation was prevented or reduced by treatment with Compound C are shown in FIG. 3J and include specific cell proliferation pathways. Gene ratios as shown in FIG. 3J were calculated as the percentage of significant genes over total genes in a given pathway.
Gene expression of chronically stimulated CAR T cells was also analyzed by RNA sequencing as in Example 3. […]

The subject of assay [2] is Raji lymphoma tumor spheroids. The assay can be described thus: Simulated intermittent dosing during chronic stimulation, re-challenge with tumor spheroids. It counts as cell-based. The settings on record: for cytolytic activity of chronically stimulated CAR T cells over four-day re-challenge: P<0.0001. Here is the method: The effects of an intermittent Compound C dosing schedule on CAR T cells was assessed.
Anti-CD19 CAR-expressing T cells, produced as described in Example 1, were chronically stimulated as described in Example 3 in the presence of Compound C. During chronic stimulation, Compound C was present at (i) 50 nM for one day and 1 nM for the remaining five days, (ii) 25 nM for one day and 0.5 nM for the remaining five days, (iii) 10 nM for one day and absent for the remaining five days, or (iv) 1 nM for all six days. Stimulated CAR T cells were then re-challenged with Raji lymphoma tumor spheroids in the absence of Compound C, after which cytolytic activity was assessed.
Similar results are shown in FIG. 7B for a separate experiment in which CAR T cells were chronically stimulated for 7 days in the presence or absence of Compound C. In this experiment, Compound C was present at (i) 50 nM for one day and 1 nM for the remaining six days of stimulation, (ii) 25 nM for one day and 0.5 nM for the remaining six days of stimulation, (iii) 10 nM for all seven days of stimulation, or (iv) 1 nM for all seven days of stimulation. Stimulated CAR T cells were then re-challenged with Raji lymphoma tumor spheroids in the absence of Compound C, after which cytolytic activity was assessed over a four-day period. […] The CAR T cells stimulated for seven days in the presence or absence of Compound C were also analyzed for phenotypic T cell memory markers using flow cytometry following chronic stimulation. […] CD27/CCR7 expression, which is a marker for less differentiated, naïve-like T cells, was highest in CAR-expressing CD8 T cells stimulated in the presence of Compound C at 50 nM for one day and 1 nM for the remaining six days of stimulation (* P<0.05).

T1 sequence (Q13422 whole entry): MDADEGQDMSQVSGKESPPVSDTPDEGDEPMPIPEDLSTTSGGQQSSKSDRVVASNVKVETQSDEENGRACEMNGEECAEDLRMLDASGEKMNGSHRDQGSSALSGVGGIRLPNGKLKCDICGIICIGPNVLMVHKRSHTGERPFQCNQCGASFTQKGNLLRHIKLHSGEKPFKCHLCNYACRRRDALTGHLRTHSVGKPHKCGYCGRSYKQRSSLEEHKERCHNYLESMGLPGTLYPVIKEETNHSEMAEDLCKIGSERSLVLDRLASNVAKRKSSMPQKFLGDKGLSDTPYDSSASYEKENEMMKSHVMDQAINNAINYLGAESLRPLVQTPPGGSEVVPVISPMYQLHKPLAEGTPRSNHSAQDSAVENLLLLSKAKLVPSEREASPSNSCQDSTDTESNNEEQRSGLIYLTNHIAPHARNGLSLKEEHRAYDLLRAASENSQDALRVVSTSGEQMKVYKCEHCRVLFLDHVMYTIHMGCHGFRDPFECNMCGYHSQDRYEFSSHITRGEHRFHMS
T1 sequence (Q96SW2 whole entry): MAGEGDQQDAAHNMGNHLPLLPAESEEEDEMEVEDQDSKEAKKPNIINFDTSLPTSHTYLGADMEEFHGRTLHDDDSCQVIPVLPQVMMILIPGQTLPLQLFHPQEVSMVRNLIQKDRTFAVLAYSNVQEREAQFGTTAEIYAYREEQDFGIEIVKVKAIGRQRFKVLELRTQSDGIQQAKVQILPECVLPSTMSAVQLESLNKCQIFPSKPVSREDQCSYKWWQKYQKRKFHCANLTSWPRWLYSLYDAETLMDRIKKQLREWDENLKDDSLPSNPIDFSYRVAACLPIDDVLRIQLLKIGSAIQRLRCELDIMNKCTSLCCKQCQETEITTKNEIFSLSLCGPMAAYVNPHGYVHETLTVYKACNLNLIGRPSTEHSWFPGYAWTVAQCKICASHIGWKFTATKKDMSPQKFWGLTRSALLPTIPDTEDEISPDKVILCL
T1 sequence (Q16531 whole entry partner): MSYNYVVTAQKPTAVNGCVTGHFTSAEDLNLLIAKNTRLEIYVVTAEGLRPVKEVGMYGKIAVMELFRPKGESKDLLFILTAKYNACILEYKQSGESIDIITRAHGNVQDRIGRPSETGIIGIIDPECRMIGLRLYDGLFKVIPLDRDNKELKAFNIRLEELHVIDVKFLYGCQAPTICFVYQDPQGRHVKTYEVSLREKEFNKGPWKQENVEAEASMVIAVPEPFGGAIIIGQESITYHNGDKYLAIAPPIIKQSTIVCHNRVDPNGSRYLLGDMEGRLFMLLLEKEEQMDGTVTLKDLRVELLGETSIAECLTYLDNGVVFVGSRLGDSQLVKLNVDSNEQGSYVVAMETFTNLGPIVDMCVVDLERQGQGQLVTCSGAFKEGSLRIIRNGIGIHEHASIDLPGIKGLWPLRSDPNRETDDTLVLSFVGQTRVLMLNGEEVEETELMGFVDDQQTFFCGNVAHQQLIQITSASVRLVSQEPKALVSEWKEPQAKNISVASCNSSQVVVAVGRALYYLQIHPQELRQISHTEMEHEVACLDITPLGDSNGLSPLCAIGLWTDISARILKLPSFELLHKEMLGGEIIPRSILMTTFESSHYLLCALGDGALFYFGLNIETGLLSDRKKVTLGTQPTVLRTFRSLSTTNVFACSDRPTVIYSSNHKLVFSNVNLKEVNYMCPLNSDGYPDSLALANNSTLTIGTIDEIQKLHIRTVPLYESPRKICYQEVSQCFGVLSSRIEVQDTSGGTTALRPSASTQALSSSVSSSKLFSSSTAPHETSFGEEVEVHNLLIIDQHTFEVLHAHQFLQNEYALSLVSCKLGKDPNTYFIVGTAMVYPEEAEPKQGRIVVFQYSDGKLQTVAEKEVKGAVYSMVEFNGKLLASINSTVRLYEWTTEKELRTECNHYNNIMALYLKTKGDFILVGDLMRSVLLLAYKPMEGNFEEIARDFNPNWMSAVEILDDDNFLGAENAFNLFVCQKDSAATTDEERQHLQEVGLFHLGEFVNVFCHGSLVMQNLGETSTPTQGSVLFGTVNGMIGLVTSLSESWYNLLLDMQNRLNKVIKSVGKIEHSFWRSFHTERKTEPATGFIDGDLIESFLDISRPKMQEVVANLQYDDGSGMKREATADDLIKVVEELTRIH

For `O=C1CC[C@H](N2C(=O)c3cccc(NCc4ccc(CN5CC(N6CCOCC6)C5)cc4F)c3C2=O)C(=O)N1` [Compound C, (S)-2-(2,6-dioxopiperidin-3-yl)-4-((2-fluoro-4-((3-morpholinoazetidin-1-yl)methyl)benzyl)amino)isoindoline-1,3-dione], the “dose with similar effects on percentage of cells in G1 phase, compared to the other compounds tested” value in the assay on anti-CD19 CAR T cells was “ten- or hundred-fold lower dose”. In addition, the “percentage of cells in G1 phase” value in the assay with anti-CD19 CAR T cells (1 nM) and in the assay with anti-CD19 CAR T cells (10 nM) was “increased” each time. In addition, the “effect on percentage of cells in G1 phase compared with the other compounds” value in the assay on anti-CD19 CAR T cells (at all doses tested) is “most effect on the percentage of cells in G1 phase”. Further, the “Ikaros levels in anti-CD19 CAR T cells” value is “lead to Ikaros degradation” at Ikaros (24-hour exposure, dose levels as low as 0.01 μM) and “did not affect Ikaros levels” at Ikaros (six-day exposure to 0.001 μM). For the same compound, the “gene expression vs untreated chronically stimulated CAR T cells (RNA-seq)” value in assay [1] (treatment during chronic stimulation (concurrent), 1 nM and 10 nM) is “altered gene expression”; in assay [1] (treatment during re-challenge (rescue)) it was “altered gene expression”. Moreover, the “cytolytic activity of chronically stimulated CAR T cells (tumor cell number during re-challenge)” value in assay [2] (25 nM for one day and 0.5 nM for the remaining five days of stimulation) is “most increase in cytolytic activity”; in assay [2] (50 nM for one day and 1 nM for the remaining five days of stimulation), “most increase in cytolytic activity”. In addition, the “cytolytic activity of chronically stimulated CAR T cells over four-day re-challenge” value in assay [2] (25 nM for one day and 0.5 nM for the remaining six days of stimulation) is recorded as “improved cytolytic activity”; in assay [2] (50 nM for one day and 1 nM for the remaining six days of stimulation) it was “improved cytolytic activity”.
